Measurements as given in paper PMC12644462, “A novel radiosensitizer α-sulfoquinovosyl-acylpropanediol (SQAP) inhibits DNA repair pathways and sensitize cells to cancer chemotherapeutic agents” (Scientific Reports, 2025).
Like-named read-outs stand apart in the source and are kept apart here.

Legend:
[1] = system: seven canine cancer cell lines; conditions: all seven cell lines
Procedure: Sensitivity to radiation or chemical reagents was assessed through colony formation assays. After trypsinized single cells were plated to form 20–200 colonies per dish and then treated with SQAP for 3 h in normoxia or hypoxia, the cells were irradiated. For drug sensitivity study, trypsinized cells were plated and then treated with various dosage of testing agents. After seven days of incubation, colonies were fixed, stained and scored. Regression curves were drawn from survival fraction, and D10 values (doses to achieve 10% cell survival) were calculated by Prism 8 (GraphPad software, San Diego, CA, USA) from at least three independent experiments. Oxygen enhancement ratio (OER) and sensitization enhancement ratio (SER) values were calculated from D10 values. OER values were calculated from the D10 value in hypoxia divided by the D10 value in normoxic condition. SER values were calculated from the D10 value without SQAP divided by the D10 value with SQAP.

[2] = system: seven canine cancer cell lines (Abrams, D17, Moresco, CML-6M, Jones, CML-10C2, STSA-1); assay: Colony formation assay, gamma-ray radiosensitization in normoxia or hypoxia; type: cell-based; conditions: 30 µM SQAP
Procedure: Irradiation was conducted by JL Shepard Mark I ^137Cs irradiator (nominal 6000 Ci) with dose rate of approximately 2.5 Gy per minute at room temperature. For hypoxia irradiation, cell cultures were placed in Aneropak Kenki system (Mitsubishi Gas Chemical, Tokyo, Japan) with oxygen meter to confirm pO2 below 0.1%. Cells were kept in hypoxia for 3 h before irradiation.

Topo I = biological target: T1, Topo I (Homo sapiens, UniProt P11387); assay: Topoisomerase I assay; type: biochemical; conditions: supercoiled pHOT1 DNA, 37 °C, 30 min
T1 sequence (P11387 1-765): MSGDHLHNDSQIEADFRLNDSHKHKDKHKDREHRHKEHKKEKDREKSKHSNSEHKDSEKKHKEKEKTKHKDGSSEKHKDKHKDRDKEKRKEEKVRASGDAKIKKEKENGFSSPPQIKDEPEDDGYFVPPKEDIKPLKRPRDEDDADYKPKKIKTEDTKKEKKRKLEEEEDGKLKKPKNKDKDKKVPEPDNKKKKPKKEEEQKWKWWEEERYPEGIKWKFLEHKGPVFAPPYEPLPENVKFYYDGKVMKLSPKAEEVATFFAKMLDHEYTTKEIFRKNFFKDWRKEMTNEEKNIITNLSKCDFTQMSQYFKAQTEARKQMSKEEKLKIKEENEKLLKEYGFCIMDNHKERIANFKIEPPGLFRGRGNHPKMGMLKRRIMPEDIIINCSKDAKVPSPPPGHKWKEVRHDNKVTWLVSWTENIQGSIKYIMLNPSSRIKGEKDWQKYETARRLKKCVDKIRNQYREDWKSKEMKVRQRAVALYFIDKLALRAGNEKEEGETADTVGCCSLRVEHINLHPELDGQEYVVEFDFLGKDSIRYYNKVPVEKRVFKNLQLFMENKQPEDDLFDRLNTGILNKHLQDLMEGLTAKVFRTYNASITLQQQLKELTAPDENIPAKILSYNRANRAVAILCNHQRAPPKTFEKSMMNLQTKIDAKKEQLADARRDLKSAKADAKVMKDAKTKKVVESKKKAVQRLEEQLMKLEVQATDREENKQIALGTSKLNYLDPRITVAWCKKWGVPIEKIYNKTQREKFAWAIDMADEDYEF
Procedure: (§1) For topoisomerase (Topo) I assay, a mixture of 125 ng of supercoiled pHOT1 DNA, 1U of Topo I enzyme, and various concentrations of SQAP in 1 mM Tris-HCl (pH7.9), 0.1 mM EDTA, 0.015 M NaCl, 0.01% BSA, 0.01 mM Spermidine and 0.5% glycerol was incubated at 37 °C for 30 min. For Topo II alpha assay, a mixture of 10 µL containing of 50 ng of […] DNA in 0.05 M Tris-HCl (pH8), 1U of Topo II alpha, various concentrations of SQAP in 0.15 M NaCl, 10 mM MgCl2, 0.5mM DTT, 30 µg/mL of BSA, 2 mM ATP was incubated at 37 °C for 30 min. After the reaction was terminated, electrophoresis was conducted at 50 V for 3 h, followed by ethidium bromide staining. DNA images were obtained by a Bio-Rad imager (Bio-Rad, Hercules, CA, USA) and quantified with Image Lab software (Bio-Rad).

Topo II alpha = Topo II alpha (Homo sapiens, UniProt P11388); assay: Topoisomerase II alpha assay; type: biochemical; conditions: kinetochore DNA, 37 °C, 30 min
Procedure: as §1

Chain of Topo II alpha (P11388 whole entry): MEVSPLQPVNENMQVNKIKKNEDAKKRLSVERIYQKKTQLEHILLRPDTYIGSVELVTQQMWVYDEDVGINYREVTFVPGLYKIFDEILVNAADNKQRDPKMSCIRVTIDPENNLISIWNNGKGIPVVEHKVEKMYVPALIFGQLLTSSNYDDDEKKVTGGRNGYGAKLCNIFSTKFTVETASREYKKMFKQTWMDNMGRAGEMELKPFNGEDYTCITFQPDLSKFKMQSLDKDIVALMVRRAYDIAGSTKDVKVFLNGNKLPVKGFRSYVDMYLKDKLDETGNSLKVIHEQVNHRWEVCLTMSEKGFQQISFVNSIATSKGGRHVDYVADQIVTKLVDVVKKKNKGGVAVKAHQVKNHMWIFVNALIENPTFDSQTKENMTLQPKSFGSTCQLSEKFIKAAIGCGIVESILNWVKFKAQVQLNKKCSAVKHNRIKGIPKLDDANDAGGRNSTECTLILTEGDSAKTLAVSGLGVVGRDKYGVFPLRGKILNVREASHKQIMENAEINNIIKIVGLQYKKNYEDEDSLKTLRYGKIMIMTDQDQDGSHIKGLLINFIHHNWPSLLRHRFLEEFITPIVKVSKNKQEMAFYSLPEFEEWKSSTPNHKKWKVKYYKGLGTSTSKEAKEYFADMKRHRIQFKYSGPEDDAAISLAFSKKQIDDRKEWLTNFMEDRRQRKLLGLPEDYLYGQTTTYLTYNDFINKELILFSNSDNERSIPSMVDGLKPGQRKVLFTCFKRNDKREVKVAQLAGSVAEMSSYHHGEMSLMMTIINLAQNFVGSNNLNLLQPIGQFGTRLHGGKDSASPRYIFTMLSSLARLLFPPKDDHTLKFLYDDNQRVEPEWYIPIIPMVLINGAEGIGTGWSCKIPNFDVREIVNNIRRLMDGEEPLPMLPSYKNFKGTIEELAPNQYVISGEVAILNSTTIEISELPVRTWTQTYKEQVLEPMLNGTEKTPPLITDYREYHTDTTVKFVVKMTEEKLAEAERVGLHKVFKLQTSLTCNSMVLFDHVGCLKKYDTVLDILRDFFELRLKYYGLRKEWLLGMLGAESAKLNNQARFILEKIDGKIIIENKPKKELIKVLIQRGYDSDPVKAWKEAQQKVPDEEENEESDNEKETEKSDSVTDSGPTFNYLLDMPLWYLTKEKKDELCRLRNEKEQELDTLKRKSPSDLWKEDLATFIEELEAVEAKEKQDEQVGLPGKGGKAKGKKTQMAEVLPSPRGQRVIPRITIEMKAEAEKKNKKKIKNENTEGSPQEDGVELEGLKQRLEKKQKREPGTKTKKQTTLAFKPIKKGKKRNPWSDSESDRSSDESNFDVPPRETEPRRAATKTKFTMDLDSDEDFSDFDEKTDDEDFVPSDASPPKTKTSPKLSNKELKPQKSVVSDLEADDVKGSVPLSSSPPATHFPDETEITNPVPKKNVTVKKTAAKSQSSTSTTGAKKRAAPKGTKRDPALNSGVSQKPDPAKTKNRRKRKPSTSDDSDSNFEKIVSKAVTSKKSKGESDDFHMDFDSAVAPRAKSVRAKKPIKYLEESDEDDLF

`CCCCCCCCCCCCCCCCCC(=O)OCCCO[C@H]1O[C@H](CS(=O)(=O)O)[C@@H](O)[C@H](O)[C@H]1O` [SQAP, Alpha-sulfoquinovosylacyl-1,3-propanediol] was tested, and the “cytotoxicity of continuous exposure of SQAP (clonogenic survival)” value ([1]; 30 µM SQAP) was “tolerance”, the “cytotoxicity of continuous exposure of SQAP (clonogenic survival)” value ([1]; 60 µM SQAP) was “minimal cell viability” and the “changes in OER values with and without SQAP treatment” value [2] was “not observed”. For the same molecule, the “radiosensitization to gamma-ray exposure” value ([2]; both normoxic and hypoxia conditions) was “induced radiosensitization”, the IC50 (Topo I) was 25 µM and the IC50 (Topo II alpha) was 9 µM.
